The values that follow are results of earlier work, collected in US20230233646A1, “METHOD OF TREATMENT OF CONGENITAL MYASTHENIC SYNDROME USING DOK7 GENE OR POLYPEPTIDE” (priority 2020, published 2023).

The subject of the data set is peripheral cholinesterase enzyme.

Regarding `CN(C)C(=O)Oc1ccc[n+](C)c1` [Pyridostigmine], the “fraction of peripheral cholinesterase enzyme carbamylated” value is recorded as “about 30%”.
